Values of other authors, collected in patent US20090214643A1, “IMPROVED PHARMACOKINETIC PROFILE OF BETA-ADRENERGIC INVERSE AGONISTS FOR THE TREATMENT OF PULMONARY AIRWAY DISEASES” (priority 2005, published 2009).

Key:
[1] = single dose, Corgard product insert

Row | SMILES | average Tmax (time to peak serum level) [1] | response of asthmatics to beta blocker administration (asthmatics; medical literature accounts) | effect on airway function observed in asthmatics (asthmatics; literature 1962, 1964)
1 | CC(C)(C)NCC(O)COc1cccc2c1CC(O)C(O)C2 (stereo not drawn) [nadolol] | 3.5 h | serious pulmonary function reduction | –
2 | CC(C)NCC(O)c1ccc2ccccc2c1 (stereo not drawn) [pronethalol] | – | – | reduction in airway function
